Source: patent publication US7544694B2, “Substituted diaza-spiro-[5.5]-undecane derivatives and their use as neurokinin antagonists” (Janssen Pharmaceutica N.V., priority 2004, dated 2009)

Columns and labels:
Assay type in all cases: cell-based
NK1 = NK1 (Homo sapiens, UniProt P25103); assay: Signal transduction (ST), intracellular Ca++ (FLIPR), functional NK1 antagonistic activity; settings: antagonist, read-out: NK1 pIC50 (converted)
Experimental: (§1) This test evaluates in vitro functional NK1 antagonistic activity. For the measurements of intracellular Ca^++ concentrations the cells were grown on 96-well (black wall/transparent bottom) plates from Costar for 2 days until they reached confluence. The cells were loaded with 2 μM Fluo3 in DMEM containing 0.1% BSA and 2.5 mM probenecid for 1 h at 37° C. They were washed 3× with a Krebs buffer (140 mM NaCl, 1 mM MgCl2×6H2O, 5 mM KCl, 10 mM glucose, 5 mM HEPES; 1.25 mM CaCl2; pH 7.4) containing 2.5 mM probenecid and 0.1% BSA (Ca^++-buffer). The cells were preincubated with a concentration range of antagonists for 20 min at RT and Ca^++-signals after addition of the agonists were measured in a Fluorescence Image Plate Reader (FLIPR from Molecular Devices, Crawley, England). The peak of the Ca^++-transient was considered as the relevant signal and the mean values of corresponding wells were analysed as described below.
(§2) The sigmoidal dose response curves were analysed by computerised curve-fitting, using the GraphPad Program. The EC50-value of a compound is the effective dose showing 50% of maximal effect. For mean curves the response to the agonist with the highest potency was normalised to 100%. For antagonist responses the IC50-value was calculated using non-linear regression.
(§3) The last columns indicate—without being limited thereto—for which action the compounds might be most suitable. Of course, since for some neurokinin receptors no data was determined, it is obvious that these compounds might be attributed to another suitable use.

NK2 = molecular target: T1, NK2 (Homo sapiens, UniProt P21452); assay: Signal transduction (ST), intracellular Ca++ (FLIPR), NK2; settings: antagonist, read-out: NK2 pIC50 (converted)
T1 sequence (P21452 1-398): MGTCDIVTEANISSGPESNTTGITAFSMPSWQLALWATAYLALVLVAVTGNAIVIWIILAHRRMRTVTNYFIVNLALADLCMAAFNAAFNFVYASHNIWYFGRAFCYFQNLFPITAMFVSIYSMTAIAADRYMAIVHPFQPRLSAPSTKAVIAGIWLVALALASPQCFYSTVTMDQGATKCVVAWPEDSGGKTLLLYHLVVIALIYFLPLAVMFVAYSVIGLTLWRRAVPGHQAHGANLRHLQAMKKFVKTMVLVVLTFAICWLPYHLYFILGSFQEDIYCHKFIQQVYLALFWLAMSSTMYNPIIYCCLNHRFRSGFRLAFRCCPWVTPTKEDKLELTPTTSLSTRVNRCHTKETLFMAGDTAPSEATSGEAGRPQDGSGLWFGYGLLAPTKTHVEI
Experimental: [The source words this procedure for another target and reports this target under the same test.] as §1, §2, §3

NK3 = molecular target: T2, NK3 (Homo sapiens, UniProt P29371); assay: Signal transduction (ST), intracellular Ca++ (FLIPR), NK3; settings: antagonist, read-out: NK3 pIC50 (converted)
T2 sequence (P29371 1-465): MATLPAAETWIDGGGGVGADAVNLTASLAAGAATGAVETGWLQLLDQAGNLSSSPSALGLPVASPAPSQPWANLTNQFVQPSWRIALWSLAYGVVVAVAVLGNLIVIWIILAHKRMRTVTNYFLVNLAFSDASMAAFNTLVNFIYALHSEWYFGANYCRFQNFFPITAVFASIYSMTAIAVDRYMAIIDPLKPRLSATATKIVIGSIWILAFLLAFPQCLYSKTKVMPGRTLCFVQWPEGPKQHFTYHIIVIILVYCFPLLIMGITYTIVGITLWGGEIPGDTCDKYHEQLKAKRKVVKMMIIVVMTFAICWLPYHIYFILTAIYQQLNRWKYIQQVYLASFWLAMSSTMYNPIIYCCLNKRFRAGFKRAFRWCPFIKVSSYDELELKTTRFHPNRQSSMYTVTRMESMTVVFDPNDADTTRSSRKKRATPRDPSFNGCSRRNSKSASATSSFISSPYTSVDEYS
Experimental: [The source words this procedure for another target and reports this target under the same test.] as §1, §2, §3

Sequence of NK1 (P25103 whole entry): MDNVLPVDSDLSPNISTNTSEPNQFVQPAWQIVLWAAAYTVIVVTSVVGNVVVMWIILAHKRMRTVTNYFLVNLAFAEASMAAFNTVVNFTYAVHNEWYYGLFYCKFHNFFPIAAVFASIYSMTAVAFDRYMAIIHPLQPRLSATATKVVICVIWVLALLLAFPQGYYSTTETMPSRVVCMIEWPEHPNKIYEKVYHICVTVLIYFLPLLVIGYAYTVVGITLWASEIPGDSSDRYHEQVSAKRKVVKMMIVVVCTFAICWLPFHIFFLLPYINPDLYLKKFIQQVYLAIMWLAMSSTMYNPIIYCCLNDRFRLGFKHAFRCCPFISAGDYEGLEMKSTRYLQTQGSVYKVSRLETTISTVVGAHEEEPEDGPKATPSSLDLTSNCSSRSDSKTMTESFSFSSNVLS

SMILES: O=C1CCC(C(=O)N2CCC3(CC2)CCN([C@H]2CCN(C(=O)c4cc(C(F)(F)F)cc(C(F)(F)F)c4)[C@H](Cc4ccc(F)c(F)c4)C2)CC3)N1 (stereo partly drawn) [Compound 139]
- IC50 (NK1): 38.9 nM
- IC50 (NK2): 2400 nM
- IC50 (NK3): 955 nM

SMILES: Cc1ccc(S(=O)(=O)N2CCC3(CCN([C@H]4CCN(C(=O)c5cc(C(F)(F)F)cc(C(F)(F)F)c5)[C@H](Cc5ccccc5)C4)CC3)CC2)cc1 [Compound 105]
- IC50 (NK1): 105 nM
- IC50 (NK2): 2450 nM
- IC50 (NK3): 2000 nM

SMILES: CC(C)S(=O)(=O)N1CCC2(CCN([C@H]3CCN(C(=O)c4cc(C(F)(F)F)cc(C(F)(F)F)c4)[C@H](Cc4ccccc4)C3)CC2)CC1 [Compound 167]
- IC50 (NK1): 56.2 nM
- IC50 (NK2): 2040 nM
- IC50 (NK3): 1950 nM

SMILES: COc1ccc(S(=O)(=O)N2CCC3(CCN([C@H]4CCN(C(=O)c5cc(C(F)(F)F)cc(C(F)(F)F)c5)[C@H](Cc5ccccc5)C4)CC3)CC2)cc1 [Compound 121]
- IC50 (NK1): 112 nM
- IC50 (NK2): 1200 nM
- IC50 (NK3): 3720 nM

SMILES: O=C1CCC(C(=O)N2CCC3(CC2)CCN(C2CCN(C(=O)c4cc(C(F)(F)F)cc(C(F)(F)F)c4)C(Cc4ccccc4)C2)CC3)N1 (stereo not drawn) [Compound 4]
- IC50 (NK1): 38.9 nM
- IC50 (NK2): 1550 nM
- IC50 (NK3): 1290 nM

SMILES: Cn1cnc(C(=O)N2CCC3(CC2)CCN([C@H]2CCN(C(=O)c4cc(C(F)(F)F)cc(C(F)(F)F)c4)[C@H](Cc4ccccc4)C2)CC3)c1 [Compound 34]
- IC50 (NK1): 191 nM
- IC50 (NK2): 6170 nM
- IC50 (NK3): > 10000 nM

SMILES: O=C(c1ccsc1)N1CCC2(CC1)CCN([C@H]1CCN(C(=O)c3cc(C(F)(F)F)cc(C(F)(F)F)c3)[C@H](Cc3ccc(F)c(F)c3)C1)CC2 [Compound 141]
- IC50 (NK1): 41.7 nM
- IC50 (NK2): 5890 nM
- IC50 (NK3): 7080 nM

SMILES: O=C(c1ccc(=O)[nH]c1)N1CCC2(CC1)CCN([C@H]1CCN(C(=O)c3cc(C(F)(F)F)cc(C(F)(F)F)c3)[C@H](Cc3ccccc3)C1)CC2 [Compound 57]
- IC50 (NK1): 151 nM
- IC50 (NK2): 1910 nM
- IC50 (NK3): > 10000 nM

SMILES: O=C(c1cc(C(F)(F)F)cc(C(F)(F)F)c1)N1CC[C@H](N2CCC3(CC2)CCN(S(=O)(=O)c2ccsc2)CC3)C[C@H]1Cc1ccccc1 [Compound 93]
- IC50 (NK1): 25.7 nM
- IC50 (NK2): 1100 nM
- IC50 (NK3): 501 nM

SMILES: O=C(c1ncccc1O)N1CCC2(CC1)CCN([C@H]1CCN(C(=O)c3cc(C(F)(F)F)cc(C(F)(F)F)c3)[C@H](Cc3ccccc3)C1)CC2 [Compound 53]
- IC50 (NK1): 138 nM
- IC50 (NK2): > 10000 nM
- IC50 (NK3): > 10000 nM

SMILES: CC(C)(C)CC(=O)N1CCC2(CC1)CCN([C@H]1CCN(C(=O)c3cc(C(F)(F)F)cc(C(F)(F)F)c3)[C@H](Cc3ccccc3)C1)CC2 [Compound 69]
- IC50 (NK1): 64.6 nM
- IC50 (NK2): 3090 nM
- IC50 (NK3): 6610 nM

SMILES: Cc1noc(C)c1CN1CCC2(CCN([C@@H]3CCN(C(=O)c4cc(C(F)(F)F)cc(C(F)(F)F)c4)[C@H](Cc4ccccc4)C3)CC2)CC1=O [Compound 201]
- IC50 (NK1): 219 nM
- IC50 (NK2): 2820 nM
- IC50 (NK3): ~10000 nM

SMILES: O=C(C1=COCCC1)N1CCC2(CC1)CCN([C@H]1CCN(C(=O)c3cc(C(F)(F)F)cc(C(F)(F)F)c3)[C@H](Cc3ccccc3)C1)CC2 [Compound 45]
- IC50 (NK1): 79.4 nM
- IC50 (NK2): 5370 nM
- IC50 (NK3): > 10000 nM

SMILES: O=C(c1ccc(=O)oc1)N1CCC2(CC1)CCN([C@H]1CCN(C(=O)c3cc(C(F)(F)F)cc(C(F)(F)F)c3)[C@H](Cc3ccccc3)C1)CC2 [Compound 46]
- IC50 (NK1): 105 nM
- IC50 (NK2): 6310 nM
- IC50 (NK3): > 10000 nM

SMILES: Cc1cn(CC(=O)N2CCC3(CC2)CCN([C@H]2CCN(C(=O)c4cc(C(F)(F)F)cc(C(F)(F)F)c4)[C@H](Cc4ccccc4)C2)CC3)c(=O)[nH]c1=O [Compound 80]
- IC50 (NK1): 29.5 nM
- IC50 (NK2): > 10000 nM
- IC50 (NK3): > 10000 nM

SMILES: O=C(C1CCOC1)N1CCC2(CC1)CCN([C@H]1CCN(C(=O)c3cc(C(F)(F)F)cc(C(F)(F)F)c3)[C@H](Cc3ccc(F)c(F)c3)C1)CC2 (stereo partly drawn) [Compound 137]
- IC50 (NK1): 27.5 nM
- IC50 (NK2): 3470 nM
- IC50 (NK3): 1700 nM

SMILES: Cc1occc1C(=O)N1CCC2(CC1)CCN([C@H]1CCN(C(=O)c3cc(C(F)(F)F)cc(C(F)(F)F)c3)[C@H](Cc3ccccc3)C1)CC2 [Compound 27]
- IC50 (NK1): 20.4 nM
- IC50 (NK2): 4470 nM
- IC50 (NK3): 3310 nM
